Measured values as given in publication PMC7707621, “Oxidized Juncuenin B Analogues with Increased Antiproliferative Activity on Human Adherent Cell Lines: Semisynthesis and Biological Evaluation” (Journal of Natural Products, 2020).
“Also recorded” adds a separate entry of the source. Like-named read-outs stand apart in the source and are kept apart here.

Legend:
[1] = tested on: MCF-7, T47D, HeLa, SiHa, C33A, A2780 cells; assay: MTT antiproliferative assay, panel of human gynecological cancer cell lines (result in words); assay type: cell-based
Method: (§1) The antiproliferative assays of the products were carried out by a standard MTT method on human breast (MCF-7, T47D), cervical (HeLa, SiHa, C33A), and ovarian (A2780) cancer cells, and NIH/3T3 mouse embryonic fibroblast cell lines. In the first step, the diastereomeric and racemic mixtures 1–11 and the starting compound, juncuenin B, were tested to obtain information about their antiproliferative activity.
(§2) The antiproliferative activity and tumor selectivity of the compounds were measured by standard MTT assays. Tumor cell lines MCF-7, T47D, HeLa, A2780, and noncancerous NIH/3T3 were provided by European Collection of Authenticated Cell Cultures (ECACC, Salisbury, UK); cell lines SiHa and C33A by LGC Standards GmbH (Wesel, Germany). All chemicals and materials used for the antiproliferative assays were purchased from Sigma Aldrich Ltd. (Budapest, Hungary).
(§3) Growth-inhibition properties of racemates and pure enantiomer compounds were determined by standard MTT assays on six human malignant gynecological cell lines (MCF-7, T47D, HeLa, SiHa, C33A, A2780). To investigate tumor selectivity, the MTT assay was repeated on mouse embryonic fibroblast cells (NIH/3T3) under the same conditions. All cell lines were maintained in minimal essential medium (MEM) supplemented with 10% fetal bovine serum, 1% nonessential amino acids, and 1% penicillin–streptomycin–amphotericin B mixture, and were stored in humidified air containing 5% CO2 at 37 °C. All cell types were seeded into 96–well plates at a density of 5000 with the exception of C33a, which was seeded at a density of 10 000 and treated by increasing concentrations (0.1–30 μM) of the compounds for 72 h under cell culturing conditions. After the incubation, 5 mg/mL MTT [3-(4,5-dimethylthiazol-2-yl)-2,5-diphenyltetrazolium bromide] solution was added to samples for 4 h and precipitated blue formazan crystals were dissolved in DMSO. Absorbance values of the samples were measured at 545 nm using a microplate reader (Stat Fax-2100, Awareness Technologies Inc., Palm City, FL, USA) and untreated cells were used as control. Normalized sigmoidal dose–response curves were fitted to the determined data and the IC50 values were calculated by GraphPad Prism 5.01 (GraphPad Software, San Diego, CA, USA). Cisplatin (Ebewe Pharma GmbH, Unterach, Austria) was used as a reference agent in the same concentration range.

T47D cells [2] = assay: MTT antiproliferative assay on T47D; assay type: cell-based, human; settings: Homo sapiens, T47D; for inhibition at 10 µM / inhibition at 30 µM: read-out: Growth inhibition (% ± SEM), T47d; for IC50: MTT, 0.1–30 μM, 72 h, mean ± SEM, read-out: calculated IC50 values, T47D
Method: as §1, §2, §3

MCF-7 cells = assay: MTT antiproliferative assay on MCF-7; assay type: cell-based, human; settings: for inhibition at 10 µM: MCF7, 10 μM; for inhibition at 10 µM / inhibition at 30 µM: read-out: Growth inhibition (% ± SEM), MCF-7; for inhibition at 30 µM: MCF7, 30 μM; for IC50: MTT, 0.1–30 μM, 72 h, mean ± SEM, read-out: calculated IC50 values, MCF-7
Method: as §1, §2, §3

C33A cells = assay: MTT antiproliferative assay on C33A; assay type: cell-based, human; settings: for inhibition at 10 µM / inhibition at 30 µM: read-out: Growth inhibition (% ± SEM), C33a; for IC50: MTT, 0.1–30 μM, 72 h, mean ± SEM, read-out: calculated IC50 values, C33A
Method: as §1, §2, §3

A2780 cells [3] = assay: MTT antiproliferative assay on A2780; assay type: cell-based, human; settings: Homo sapiens; for inhibition at 10 µM: A2780, 10 μM; for inhibition at 10 µM / inhibition at 30 µM: read-out: Growth inhibition (% ± SEM), A2780; for inhibition at 30 µM: A2780, 30 μM; for IC50: A2780, MTT, 0.1–30 μM, 72 h, mean ± SEM, read-out: calculated IC50 values, A2780
Method: as §1, §2, §3

SiHa cells = assay: MTT antiproliferative assay on SiHa; assay type: cell-based, human; settings: for inhibition at 10 µM / inhibition at 30 µM: read-out: Growth inhibition (% ± SEM), SiHa; for IC50: MTT, 0.1–30 μM, 72 h, mean ± SEM, read-out: calculated IC50 values, SiHa
Method: as §1, §2, §3

HeLa cells [4] = assay: MTT antiproliferative assay on HeLa; assay type: cell-based, human; settings: Homo sapiens, HeLa; for inhibition at 10 µM / inhibition at 30 µM: read-out: Growth inhibition (% ± SEM), HeLa; for IC50: MTT, 0.1–30 μM, 72 h, mean ± SEM, read-out: calculated IC50 values, HeLa
Method: as §1, §2, §3

[5] = tested on: NIH/3T3 mouse embryonic fibroblast cells; assay: MTT assay for tumor selectivity on NIH/3T3; assay type: cell-based; settings: for inhibition at 10 µM / inhibition at 30 µM: read-out: Growth inhibition (% ± SEM), NIH; for IC50: MTT, 0.1–30 μM, 72 h, mean ± SEM, read-out: calculated IC50 values, NIH/3T3
Method: as §1, §2, §3

HeLa cells [6] = settings: cited from earlier work
T47D cells [7] = settings: read-out: IC50 value from literature, T47D; cited from earlier work
A2780 cells [8] = settings: read-out: IC50 value from literature, A2780; cited from earlier work

Compound	antiproliferative activity (in words) [1]	inhibition at 10 µM (T47D cells [2]) [%]	inhibition at 30 µM (T47D cells [2]) [%]	IC50 (T47D cells [2]) [µM]	inhibition at 10 µM (MCF-7 cells; Homo sapiens) [%]	inhibition at 30 µM (MCF-7 cells; Homo sapiens) [%]	IC50 (MCF-7 cells; Homo sapiens, MCF7) [µM]	inhibition at 10 µM (C33A cells; Homo sapiens, C-33-A) [%]	inhibition at 30 µM (C33A cells; Homo sapiens, C-33-A) [%]	IC50 (C33A cells; Homo sapiens, C-33-A) [µM]	inhibition at 10 µM (A2780 cells [3]) [%]	inhibition at 30 µM (A2780 cells [3]) [%]	IC50 (A2780 cells [3]) [µM]	inhibition at 10 µM (SiHa cells; Homo sapiens, SiHa) [%]	inhibition at 30 µM (SiHa cells; Homo sapiens, SiHa) [%]	IC50 (SiHa cells; Homo sapiens, SiHa) [µM]	inhibition at 10 µM (HeLa cells [4]) [%]	inhibition at 30 µM (HeLa cells [4]) [%]	IC50 (HeLa cells [4]) [µM]	IC50 ([5]; Mus musculus, NIH3T3) [µM]	other results
C=CC1=C(C)C(=O)C=C2c3ccc(O)c(C)c3CC[C@]21OC [Compound 4b]	no relevant influence on the cell proliferation	16.5 ± 1.68	28.1 ± 1.79	> 30	24.4 ± 1.43	42 ± 1.94	> 30	< 10	35.4 ± 0.8	> 30	< 10	13.7 ± 2.81	> 30	< 10	< 10	> 30	19 ± 2.11	37.2 ± 0.72	> 30	> 30	inhibition at 10 µM ([5]; Mus musculus, NIH3T3): < 10%; inhibition at 30 µM ([5]; Mus musculus, NIH3T3): < 10%
C=CC1=C(C)C(=O)C=C2c3ccc(O)c(C)c3CC[C@]21OCC [Compound 7b, 8a-ethoxy-1,7-dimethyl-6-oxo-8-vinyl-9,10-dihydrophenanthrene-2-ols]	no activity; also recorded: no relevant influence on the cell proliferation	< 10	13.5 ± 2.41	> 30	< 10	< 10	> 30	< 10	26 ± 3	> 30	< 10	20.6 ± 2.43	> 30	< 10	< 10	> 30	15 ± 2.72	31.7 ± 2.37	> 30	> 30	inhibition at 10 µM ([5]; Mus musculus, NIH3T3): < 10%; inhibition at 30 µM ([5]; Mus musculus, NIH3T3): 10.5 ± 1%
C=CC1=C2CCc3c(ccc(O)c3C)C2=CC(=O)C1(C)OCC (centres unmarked) [Compound 9]	did not exert antiproliferative activity; also recorded: No significant activities	< 10	13.2 ± 2.03	–	10.7 ± 2.42	17 ± 2.56	–	< 10	< 10	–	< 10	< 10	–	< 10	< 10	–	15.1 ± 1.9	18.4 ± 3.15	–	–	–
C=CC1=C(C)C(=O)C(OCCCC)(OCCCC)c2c1ccc1c2C=CC(=O)C1(C)OCCCC (centres unmarked) [Compound 10]	did not exert antiproliferative activity	< 10	33 ± 1.62	–	< 10	42.5 ± 2.23	–	< 10	16 ± 1.43	–	< 10	10.1 ± 1.23	–	< 10	10.4 ± 2.8	–	< 10	14.1 ± 1.97	–	–	–
C=CC1=C(C)C(=O)C=C2c3ccc(O)c(C)c3CCC21OCCCC (centres unmarked) [Compound 11]	No significant activities	11.6 ± 1.4	52.9 ± 0.59	30 ± 0.5	27.7 ± 1.3	82.46 ± 0.33	18.2 ± 0.2	20.1 ± 2.24	65.5 ± 1.26	19.9 ± 1.3	28.3 ± 2.31	77.82 ± 0.69	16.5 ± 2	< 10	< 10	> 30	< 10	42.6 ± 1.18	> 30	> 30	–
C=Cc1c(C)c(O)cc2c1-c1ccc(O)c(C)c1CC2 [Juncusol]	–	–	–	–	–	–	–	–	–	–	–	–	–	–	–	–	–	–	–	–	cytotoxicity on HeLa cells (in words) (HeLa cells [6]): cytotoxic
N.N.[Cl][Pt][Cl] [cisplatin, reference compound]	–	–	–	–	–	–	–	–	–	–	–	–	–	–	–	–	–	–	–	–	IC50 (MCF-7 cells): 5.8 µM; IC50 (C33A cells): 1.8 µM; IC50 (T47D cells [7]): 9.8 µM; IC50 (A2780 cells [8]): 1.3 µM; IC50 (SiHa cells): 7.8 µM; IC50 [5]: 2.7 µM
C=Cc1c(C)c(O)cc2c1CCc1c-2ccc(O)c1C [juncuenin B, 1,7-dimethyl-8-vinyl-9,10-dihydrophenanthrene-2,6-diol]	–	< 10	54.2 ± 2.66	–	22.5 ± 2.02	64.9 ± 2.1	–	27.5 ± 2.45	79.33 ± 0.7	12.7 ± 1.7	61.2 ± 1.46	85.91 ± 0.62	–	22.7 ± 2.89	33.1 ± 1.76	> 30	88.8 ± 1.15	93.58 ± 0.41	–	–	fold stronger activity on MCF-7 than on T47D cells (MCF-7 cells; MCF-7 versus T47D): approximately 2.5 fold; IC50 (T47D cells [7]): > 30 µM
